Measurements reported in the NIST ThermoML archive (doi:10.1021/acs.jced.8b00921).
± gives the expanded uncertainty stated by the source.

Assay: xn = mol fraction of the nth substance listed
Settings: Gas, isochoric method

C=CC(F)(F)F [1,1,1-trifluoro-2-propene] + CC(C)C
Settings	specific volume [m3/kg]
303.15 K, 47.6 kPa, x2 = 0.282	0.6134 ± 0.11
303.15 K, 169.8 kPa, x2 = 0.898	0.2302 ± 0.0041
308.15 K, 48.4 kPa, x2 = 0.282	0.6136 ± 0.0091
308.15 K, 172.8 kPa, x2 = 0.898	0.2303 ± 0.0041
308.15 K, 192.7 kPa, x2 = 0.434	0.1611 ± 0.0041
308.15 K, 289.5 kPa, x2 = 0.225	0.0942 ± 0.0093
313.15 K, 49.2 kPa, x2 = 0.282	0.6137 ± 0.0088
313.15 K, 175.8 kPa, x2 = 0.898	0.2303 ± 0.0041
313.15 K, 196 kPa, x2 = 0.434	0.1611 ± 0.004
313.15 K, 294.8 kPa, x2 = 0.225	0.0943 ± 0.0093
318.15 K, 50 kPa, x2 = 0.282	0.6139 ± 0.0085
318.15 K, 178.7 kPa, x2 = 0.898	0.2304 ± 0.0041
318.15 K, 199.4 kPa, x2 = 0.434	0.1611 ± 0.004
318.15 K, 300.1 kPa, x2 = 0.225	0.0943 ± 0.0094
323.15 K, 50.8 kPa, x2 = 0.282	0.614 ± 0.0082
323.15 K, 181.7 kPa, x2 = 0.898	0.2304 ± 0.0041
323.15 K, 202.4 kPa, x2 = 0.434	0.1612 ± 0.0039
323.15 K, 305.3 kPa, x2 = 0.225	0.0943 ± 0.0093
328.15 K, 51.6 kPa, x2 = 0.282	0.6141 ± 0.0079
328.15 K, 184.7 kPa, x2 = 0.898	0.2305 ± 0.0041
328.15 K, 205.9 kPa, x2 = 0.434	0.1612 ± 0.0039
328.15 K, 310.5 kPa, x2 = 0.225	0.0943 ± 0.0093
333.15 K, 52.4 kPa, x2 = 0.282	0.6143 ± 0.0075
333.15 K, 187.6 kPa, x2 = 0.898	0.2305 ± 0.004
333.15 K, 209.4 kPa, x2 = 0.434	0.1613 ± 0.0039
333.15 K, 315.8 kPa, x2 = 0.225	0.0943 ± 0.0094
338.15 K, 53.2 kPa, x2 = 0.282	0.6144 ± 0.0073
338.15 K, 190.4 kPa, x2 = 0.898	0.2306 ± 0.0041
338.15 K, 212 kPa, x2 = 0.434	0.1613 ± 0.0038
338.15 K, 320.9 kPa, x2 = 0.225	0.0944 ± 0.0094
343.15 K, 54 kPa, x2 = 0.282	0.6145 ± 0.007
343.15 K, 193.4 kPa, x2 = 0.898	0.2306 ± 0.0041
343.15 K, 215.5 kPa, x2 = 0.434	0.1613 ± 0.0038
343.15 K, 326.1 kPa, x2 = 0.225	0.0944 ± 0.0094
348.15 K, 54.8 kPa, x2 = 0.282	0.6147 ± 0.0067
348.15 K, 196.3 kPa, x2 = 0.898	0.2307 ± 0.004
348.15 K, 218.9 kPa, x2 = 0.434	0.1614 ± 0.0038
348.15 K, 331.3 kPa, x2 = 0.225	0.0944 ± 0.0094
353.15 K, 55.6 kPa, x2 = 0.282	0.6148 ± 0.0064
353.15 K, 199.4 kPa, x2 = 0.898	0.2307 ± 0.004
353.15 K, 222.4 kPa, x2 = 0.434	0.1614 ± 0.0037
353.15 K, 336.5 kPa, x2 = 0.225	0.0944 ± 0.0094
358.15 K, 56.4 kPa, x2 = 0.282	0.6149 ± 0.0062
358.15 K, 202.3 kPa, x2 = 0.898	0.2308 ± 0.004
358.15 K, 225 kPa, x2 = 0.434	0.1614 ± 0.0037
358.15 K, 341.6 kPa, x2 = 0.225	0.0944 ± 0.0094
363.15 K, 57.2 kPa, x2 = 0.282	0.6151 ± 0.006
363.15 K, 205.3 kPa, x2 = 0.898	0.2308 ± 0.004
363.15 K, 228.5 kPa, x2 = 0.434	0.1615 ± 0.0037
363.15 K, 346.8 kPa, x2 = 0.225	0.0945 ± 0.0094
368.15 K, 58.1 kPa, x2 = 0.282	0.6152 ± 0.0057
368.15 K, 208.1 kPa, x2 = 0.898	0.2309 ± 0.004
368.15 K, 231.9 kPa, x2 = 0.434	0.1615 ± 0.0037
368.15 K, 351.9 kPa, x2 = 0.225	0.0945 ± 0.0094
373.15 K, 58.8 kPa, x2 = 0.282	0.6153 ± 0.0055
373.15 K, 211.1 kPa, x2 = 0.898	0.2309 ± 0.0039
373.15 K, 235.2 kPa, x2 = 0.434	0.1615 ± 0.0037
373.15 K, 357.1 kPa, x2 = 0.225	0.0945 ± 0.0096
378.15 K, 59.7 kPa, x2 = 0.282	0.6155 ± 0.0054
378.15 K, 213.4 kPa, x2 = 0.898	0.231 ± 0.0039
378.15 K, 236.9 kPa, x2 = 0.434	0.1616 ± 0.0036
378.15 K, 362.3 kPa, x2 = 0.225	0.0945 ± 0.0096
383.15 K, 60.5 kPa, x2 = 0.282	0.6156 ± 0.0051
383.15 K, 217.1 kPa, x2 = 0.898	0.231 ± 0.0042
383.15 K, 240.1 kPa, x2 = 0.434	0.1616 ± 0.0036
383.15 K, 367.5 kPa, x2 = 0.225	0.0946 ± 0.0094
